Read-outs that look alike come from different tables or passages of the source.
How the values were obtained:
[1] = system: S. Typhimurium 0911R; experiment: microbe, parasite or virus in culture; type: cell-based, Salmonella Typhimurium; conditions: Salmonella enterica, TYPHIMURIUM
Experimental: (§1) The minimal inhibitory concentration (MIC) of each test compound against the individual bacterial strains was determined by the broth microdilution method following the guidelines recommended by the Clinical and Laboratory Standards Institute (CLSI) ([27]).

[2] = system: ciprofloxacin-resistant S. Typhimurium strains SA10 and SB10 in RAW264.7 cells; experiment: HCA of intracellular ciprofloxacin-resistant strains in macrophages; type: cell-based, Salmonella enterica serovar Typhimurium; conditions: SA10 and SB10, gentamicin, 24 h
Experimental: (§2) Overnight cultures of RFP-expressing S. Typhimurium were prepared for infection by 1:100 dilution in fresh LB broth and incubation for 2 h at 37°C. The bacteria were then collected by centrifugation at 6,000 × g for 3 min and suspended in phosphate-buffered saline (PBS; pH 7.2) to an optical density of 0.6 at 600 nm, which was equivalent to 5 × 10^8 CFU/mL. RAW264.7 macrophages were seeded in 96-well black clear-bottom plates (Greiner) and incubated for 20 h followed by infection with RFP-expressing S. Typhimurium at a multiplicity of infection (MOI) of 50 for 1 h. […] Afterward, the cells were washed and stained with CellTracker Green (Thermo Fisher Scientific) for 30 min in serum-free DMEM followed by fixation in 3.7% formaldehyde (Sigma-Aldrich) for 20 min and stained with 0.2 mg/L DAPI (4′,6-diamidino-2-phenylindole; AAT Bioquest) for 30 min. Images of individual wells were captured and analyzed using a high-content imaging system (ImageXpress Micro 4; Molecular Devices). The CC50 and 50% effective concentration (EC50) values against intracellular bacteria of each compound were determined using CalcuSyn software (Biosoft).

[3] = system: ROS levels in Salmonella-infected RAW264.7 cells; experiment: Analysis of ROS in macrophages (H2DCFDA); type: cell-based, murine; conditions: 1 h; SW14 at concentrations up to 8 μM
Experimental: RAW264.7 macrophages were seeded in 96-well black plates and infected by S. Typhimurium ATCC 14028 at an MOI of 25 for 1 h. After infection, the cells were washed, exposed to 100 mg/L gentamicin for 1 h, washed with warm Krebs-Ringer phosphate buffer (KRP buffer; 120 mM NaCl, 5 mM KCl, 1.7 mM KH2PO4, 8.3 mM Na2HPO4, 10 mM glucose, 1 mM CaCl2, 1.5 mM MgCl2, pH 7.3) and stained with H2DCFDA at 37°C with 5% CO2 for 45 min. The cells were then washed with KRP buffer and treated with SW14 or PMA at the desired concentrations in KRP buffer with 10% FBS. Fluorescence signals at 488/525 nm (excitation/emission) were measured using a SpectraMax M5 Microplate Reader (Molecular Devices).

[4] = system: multidrug-resistant S. Typhimurium isolates 0911R and NL08.10 in RAW264.7 cells; experiment: HCA of intracellular multidrug-resistant isolates in macrophages; type: cell-based, Salmonella enterica serovar Typhimurium; conditions: 0911R and NL08.10, gentamicin, 24 h
Experimental: as §2

[5] = system: S. Typhimurium; experiment: Bacterial growth assay (OD600); type: cell-based, Salmonella enterica serovar Typhimurium; conditions: for concentration inhibiting bacterial growth (OD600): 24 h
Experimental: Overnight-grown S. […] The plate was incubated at 37°C, and bacterial growth was monitored by measuring the absorbance at 600 nm with a VersaMax Microplate reader (Molecular Devices) at designated times for 24 h.

[6] = system: intracellular S. Typhimurium in RAW264.7 macrophages; experiment: microbe, parasite or virus in culture; type: cell-based, Salmonella enterica serovar Typhimurium; conditions: for viability at 0.5 µM: TYPHIMURIUM, RAW264.7, read-out: viability of intracellular Salmonella compared to mock-treated cells
Experimental: as §2

[7] = HCA cytotoxicity toward infected macrophages (nuclear staining); type: cell-based, murine; conditions: mouse, RAW264.7 macrophages infected with S. Typhimurium, infected RAW264.7 cells, read-out: 50% cytotoxic concentration (CC50) toward macrophages
Experimental: as §2

[8] = system: S. Typhimurium SA10; experiment: MIC assay (broth microdilution); type: cell-based, Salmonella Typhimurium; conditions: Salmonella enterica, TYPHIMURIUM; Table S1(B), SA10
Experimental: as §1

[9] = system: S. Typhimurium SB10; experiment: MIC assay (broth microdilution); type: cell-based, Salmonella Typhimurium; conditions: Salmonella enterica, TYPHIMURIUM
Experimental: as §1

[10] = system: S. Typhimurium NL08.10; experiment: MIC assay (broth microdilution); type: cell-based, Salmonella Typhimurium; conditions: Salmonella enterica, TYPHIMURIUM
Experimental: as §1

[11] = system: S. Typhimurium ATCC 14028; experiment: MIC assay (broth microdilution); type: cell-based, Salmonella Typhimurium
Experimental: as §1

[12] = system: intracellular S. Typhimurium in RAW264.7 cells; experiment: CFU assay of bacterial growth in macrophages; type: cell-based, Salmonella enterica serovar Typhimurium; conditions: submicromolar concentrations, with gentamicin 20 mg/L, 24 h
Experimental: Overnight cultures of S. Typhimurium were diluted 1:100 in fresh LB broth and incubated for 2 h at 37°C. The bacteria were then collected and suspended in PBS to an OD600 of 0.6. RAW264.7 cells seeded in a 6-well plate were infected with S. Typhimurium at an MOI of 25 for 1 h. After infection, the cells were washed, exposed to 100 mg/L gentamicin for 1 h, and treated with SW14 (0.25 to 1 μM) in combination with 20 mg/L gentamicin for 24 h. Then, the infected cells were washed and lysed with 0.1% Triton X-100 in PBS for 10 min at 37°C to release the intracellular bacteria. The cell lysates were serially diluted in PBS, spread on LB agar plates, and incubated at 37°C for 18 h. The bacterial colonies on the plates were enumerated and expressed as CFU.

Question: For Clc1ccc2c(c1)C(NCCN1CCNCC1)=Nc1ccccc1O2 [SW14], which MIC [1] is on record?
Answer: The MIC was > 64 µg/mL.

Question: What about the “intracellular proliferation of ciprofloxacin-resistant isolates” value [2] of the same compound?
Answer: The value was “highly sensitive”.

Question: And the “ROS level (H2DCFDA fluorescence signal) in infected macrophages” value [3]?
Answer: Its value is “did not observe any significant change”.

Question: What about the “intracellular replication of MDR S. Typhimurium isolates” value [4] of the same compound?
Answer: Its value is “remained susceptible”.

Question: What about the “concentration inhibiting bacterial growth (OD600)” value ([5]; Luria-Bertani (LB) medium) of the same compound?
Answer: The value was > 64 µM.

Question: And the “growth of Salmonella in LPM medium” value ([5]; acidic low-phosphate, low-magnesium (LPM) medium)?
Answer: Its value is “unable to detect any significant change”.

Question: And the “concentration inhibiting bacterial growth in broth” value ([5]; broth)?
Answer: The value was > 64 µM.

Question: And the “concentration inhibiting bacterial growth (OD600)” value ([5]; cell culture medium (DMEM + 10% FBS))?
Answer: The value was > 64 µM.

Question: And the “inhibitory activity of ciprofloxacin and cefixime on intracellular Salmonella in combination with SW14” value ([6]; 0.5 μM SW14, 24 h, equal to the antibiotic at 2-fold concentration)?
Answer: The value was “enhanced”.

Question: What about the “selectivity index (SI; CC50/EC50)” value ([6]; CC50 RAW264.7 / EC50 intracellular Salmonella) of the same compound?
Answer: The value was 47.

Question: And the “susceptibility of intracellular Salmonella to SW14 after Atg7 knockdown” value ([6]; RAW264.7 shATG7 clones vs empty vector, 24 h)?
Answer: The value was “more susceptible”.

Question: And the viability at 0.5 µM ([6]; Salmonella enterica, 3-MA 10 mM for 1 h, then SW14 0.5 μM for 24 h, HCA)?
Answer: The viability at 0.5 µM was 36.8%.

Question: And the viability at 0.5 µM ([6]; Salmonella enterica, SW14 0.5 μM alone, 24 h, HCA)?
Answer: The viability at 0.5 µM was 45%.

Question: What about the EC50 ([6]; Salmonella enterica, RFP-expressing S. Typhimurium in RAW264.7, 24 h, with gentamicin 20 mg/L, HCA, read-out: 50% effective concentration (EC50) against intracellular Salmonella) of the same compound?
Answer: The EC50 was 0.5 µM.

Question: And the “suppressive effect on intracellular S. Typhimurium in the presence of ROS scavengers” value ([6]; with NAC 10 mM or GSH 10 mM)?
Answer: The value was “reversed”.

Question: What about the CC50 at 24 h [7] of the same compound?
Answer: The CC50 at 24 h was 23.5 µM.

Question: What about the MIC [8] of the same compound?
Answer: The MIC was > 64 µg/mL.

Question: And the MIC [9]?
Answer: The MIC was > 64 µg/mL.

Question: What about the MIC [10] of the same compound?
Answer: The MIC was > 64 µg/mL.

Question: What about the MIC ([11]; Salmonella enterica) of the same compound?
Answer: The MIC was > 64 µg/mL.

Question: And the MIC ([11]; Table S1(B), ATCC 14028)?
Answer: The MIC was > 64 µg/mL.

Question: What about the “viability of intracellular Salmonella (CFU assay)” value [12] of the same compound?
Answer: The value was “potent suppressive effect”.

Reference: PMC8635125, “A Novel Dibenzoxazepine Attenuates Intracellular Salmonella Typhimurium Oxidative Stress Resistance” (Microbiology Spectrum, 2021)
